# Measurements reported in ChEMBL document CHEMBL4834428 (J Med Chem, 2021).
# Experiments:
# [1] = target: T1, NAD-dependent protein deacetylase sirtuin-1 (Homo sapiens, UniProt Q96EB6)
# T1 sequence (Q96EB6 whole entry): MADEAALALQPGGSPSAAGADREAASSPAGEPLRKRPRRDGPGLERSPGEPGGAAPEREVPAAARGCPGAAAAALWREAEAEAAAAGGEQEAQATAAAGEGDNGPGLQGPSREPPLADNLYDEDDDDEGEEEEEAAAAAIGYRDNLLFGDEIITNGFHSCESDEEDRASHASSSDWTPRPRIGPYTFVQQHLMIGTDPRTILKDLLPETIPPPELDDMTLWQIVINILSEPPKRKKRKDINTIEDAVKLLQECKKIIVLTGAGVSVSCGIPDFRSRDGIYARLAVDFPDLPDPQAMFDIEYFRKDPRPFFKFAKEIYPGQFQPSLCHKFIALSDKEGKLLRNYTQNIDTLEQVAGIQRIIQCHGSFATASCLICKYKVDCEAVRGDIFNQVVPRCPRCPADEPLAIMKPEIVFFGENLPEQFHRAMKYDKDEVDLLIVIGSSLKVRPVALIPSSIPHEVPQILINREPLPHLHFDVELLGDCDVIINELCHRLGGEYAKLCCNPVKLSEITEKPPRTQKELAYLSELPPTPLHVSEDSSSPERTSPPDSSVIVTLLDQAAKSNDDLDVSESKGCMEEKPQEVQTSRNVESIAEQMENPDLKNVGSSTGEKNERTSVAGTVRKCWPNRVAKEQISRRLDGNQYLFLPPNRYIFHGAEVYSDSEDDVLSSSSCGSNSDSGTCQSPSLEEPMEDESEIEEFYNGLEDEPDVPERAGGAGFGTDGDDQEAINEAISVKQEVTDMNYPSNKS
# Description: Inhibition of His6-tagged SIRT1 (unknown origin) expressed in Escherichia coli BL21 (DE3) preincubated for 15 mins followed by NAD+ addition and measured after 30 mins by FLucK529Ac based luminescence assay
# [2] = target: T2, NAD-dependent protein deacetylase sirtuin-2 (Homo sapiens, UniProt Q8IXJ6); assay: Inhibition of His6-tagged/TEV fused SIRT2 (unknown origin) expressed in Escherichia coli BL21 (DE3) preincubated for 15 mins followed by NAD+ addition and measured after 30 mins by FLucK529Ac based luminescence assay
# T2 sequence (Q8IXJ6 whole entry): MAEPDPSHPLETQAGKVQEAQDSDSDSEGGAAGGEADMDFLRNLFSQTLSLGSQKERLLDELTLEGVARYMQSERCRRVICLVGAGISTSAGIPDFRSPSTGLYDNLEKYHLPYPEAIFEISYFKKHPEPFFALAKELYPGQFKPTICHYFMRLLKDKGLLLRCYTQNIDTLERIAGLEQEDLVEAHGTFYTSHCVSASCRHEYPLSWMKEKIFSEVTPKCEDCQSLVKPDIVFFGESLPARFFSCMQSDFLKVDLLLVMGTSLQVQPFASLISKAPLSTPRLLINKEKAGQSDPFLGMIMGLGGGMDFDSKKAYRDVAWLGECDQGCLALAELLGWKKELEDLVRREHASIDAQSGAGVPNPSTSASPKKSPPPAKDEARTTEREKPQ
# [3] = target: T3, NAD-dependent protein deacetylase sirtuin-3, mitochondrial (Homo sapiens, UniProt Q9NTG7); assay: Inhibition of His6-tagged/TEV fused SIRT3 (unknown origin) expressed in Escherichia coli BL21 (DE3) preincubated for 15 mins followed by NAD+ addition and measured after 30 mins by FLucK529Ac based luminescence assay
# T3 sequence (Q9NTG7 whole entry): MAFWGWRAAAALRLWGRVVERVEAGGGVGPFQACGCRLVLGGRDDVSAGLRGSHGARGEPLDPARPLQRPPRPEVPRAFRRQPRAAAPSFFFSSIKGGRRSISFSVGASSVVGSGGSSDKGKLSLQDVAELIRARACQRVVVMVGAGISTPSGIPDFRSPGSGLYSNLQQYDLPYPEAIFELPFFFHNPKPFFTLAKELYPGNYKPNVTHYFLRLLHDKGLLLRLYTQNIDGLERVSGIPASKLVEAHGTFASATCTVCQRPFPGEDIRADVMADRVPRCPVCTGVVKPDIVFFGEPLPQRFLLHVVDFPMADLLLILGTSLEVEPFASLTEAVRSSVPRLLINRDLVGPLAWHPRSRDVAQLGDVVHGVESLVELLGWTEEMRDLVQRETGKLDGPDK
SMILES,IC50 [1] [µM],IC50 [2] [µM],IC50 [3] [µM]
Cc1ccccc1CN1CC(C(N)=O)Oc2ccccc21 (centres undefined),2.49,22.2,> 60
NC(=O)C1CN(Cc2cccc(Br)c2)c2ccccc2O1 (centres undefined),1.27,1.76,> 60
NC(=O)C1CN(Cc2csc(N)n2)c2ccccc2O1 (centres undefined),1.48,> 60,> 60
COc1ccc(NC(=O)N2CC(C(N)=O)Oc3ccccc32)cc1 (centres undefined),> 60,> 60,> 60
COc1cccc(CN2CC(C(N)=O)Oc3ccccc32)c1 (centres undefined),2.13,15.4,> 60
CC(=O)Nc1ccccc1CN1CC(C(N)=O)Oc2ccccc21 (centres undefined),31.6,> 60,> 60
Cc1ccc(S(=O)(=O)N2CC(C(N)=O)Oc3ccccc32)cc1 (centres undefined),> 60,> 60,> 60
NC(=O)C1CN(Cc2ccc(-c3ccccc3)cc2)c2ccccc2O1 (centres undefined),> 60,> 60,> 60
NC(=O)C1CN(Cc2ccc(C(F)(F)F)cc2)c2ccccc2O1 (centres undefined),28.5,22.8,> 60
NC(=O)C1CN(Cc2ccccc2F)c2ccccc2O1 (centres undefined),1.77,35.4,> 60
CC(=O)Nc1cccc(CN2CC(C(N)=O)Oc3ccccc32)c1 (centres undefined),2.4,> 60,> 60
Cc1cccc(C)c1CN1CC(C(N)=O)Oc2ccccc21 (centres undefined),37.4,> 60,> 60
NC(=O)C1CN(Cc2ccccc2N)c2ccccc2O1 (centres undefined),4.91,36.1,> 60
CC(=O)Nc1ccc(CN2CC(C(N)=O)Oc3ccccc32)cc1 (centres undefined),10.4,> 60,> 60
NC(=O)C1CN(Cc2ccccc2)c2ccccc2O1 (centres undefined),8.54,> 60,> 60
NC(=O)C1CN(Cc2ccccc2[N+](=O)[O-])c2ccccc2O1 (centres undefined),–,10.6,> 60
NC(=O)C1CN(Cc2ccccc2Br)c2ccccc2O1 (centres undefined),0.56,16.6,> 60
NC(=O)C1CN(Cc2ccc([N+](=O)[O-])cc2)c2ccccc2O1 (centres undefined),1.06,34.7,> 60
CC(=O)Nc1nc(CN2CC(C(N)=O)Oc3ccccc32)cs1 (centres undefined),0.62,> 60,–
Cc1ccc(NC(=O)N2CC(C(N)=O)Oc3ccccc32)cc1 (centres undefined),> 60,> 60,> 60

SMILES,IC50 [1] [µM],IC50 [2] [µM],IC50 [3] [µM]
NC(=O)C1CN(Cc2cccnc2)c2ccccc2O1 (centres undefined),4.7,58,> 60
NC(=O)C1CN(Cc2ccccc2I)c2ccccc2O1 (centres undefined),0.47,> 60,> 60
NC(=O)C1CN(Cc2ccc3c(c2)OCO3)c2ccccc2O1 (centres undefined),1.9,26,> 60
N#Cc1ccccc1CN1CC(C(N)=O)Oc2ccccc21 (stereo in doubt; form 2),0.11,34,> 60
CS(=O)(=O)N1CC(C(N)=O)Oc2ccccc21 (centres undefined),> 60,> 60,> 60
CCOC(=O)C1CN(Cc2ccccc2)c2ccccc2O1 (centres undefined),> 60,> 60,> 60
NC(=O)C1CN(C(=O)c2ccc(CCl)cc2)c2ccccc2O1 (centres undefined),48.8,> 60,> 60
NC(=O)C1CN(Cc2cnnn2Cc2ccccc2)c2ccccc2O1 (centres undefined),14.1,32.6,> 60
O=C(O)C1CN(Cc2ccccc2)c2ccccc2O1 (centres undefined),> 60,> 60,> 60
NC(=O)C1CN(Cc2ccccc2O)c2ccccc2O1 (centres undefined),0.82,12.3,> 60
N#Cc1cccc(NC(=O)N2CC(C(N)=O)Oc3ccccc32)c1 (centres undefined),> 60,> 60,> 60
NC(=O)C1CN(S(=O)(=O)c2cccc3ccccc23)c2ccccc2O1 (centres undefined),> 60,> 60,> 60
O=C(O)C1CNc2ccccc2O1 (centres undefined),> 60,> 60,> 60
NC(=O)C1CN(Cc2ccc3nonc3c2)c2ccccc2O1 (centres undefined),> 60,0.6,> 60
N#Cc1ccccc1CN1CC(C(N)=O)Oc2ccccc21 (stereo in doubt; form 1),47.3,47.3,> 60
CN(C)C(=O)C1CN(Cc2ccccc2)c2ccccc2O1 (centres undefined),> 60,> 60,> 60
NC(=O)C1CN(Cc2cccc([N+](=O)[O-])c2)c2ccccc2O1 (centres undefined),0.23,4.19,> 60
CC(C)(C)OC(=O)c1ccc(CN2CC(C(N)=O)Oc3ccccc32)cc1 (centres undefined),20.1,42,> 60
CC(C)(C)OC(=O)Nc1nc(CN2CC(C(N)=O)Oc3ccccc32)cs1 (centres undefined),5.63,> 60,> 60
CC(C)CC(=O)N1CC(C(N)=O)Oc2ccccc21 (centres undefined),> 60,> 60,> 60

SMILES,IC50 [1] [µM],IC50 [2] [µM],IC50 [3] [µM]
NC(=O)C1CNc2ccccc2O1 (centres undefined),> 60,> 60,> 60
CC(C)(C)OC(=O)CN1CC(C(N)=O)Oc2ccccc21 (centres undefined),> 60,> 60,> 60
CNC(=O)C1CN(Cc2ccccc2)c2ccccc2O1 (centres undefined),> 60,> 60,> 60
CN1CC(C(N)=O)Oc2ccccc21 (centres undefined),> 60,> 60,> 60
NC(=O)C1CN(Cc2cc(C(F)(F)F)cc(C(F)(F)F)c2)c2ccccc2O1 (centres undefined),6.04,0.52,> 60
COc1ccc(CN2CC(C(N)=O)Oc3ccccc32)cc1 (centres undefined),1.45,31.8,> 60
CC(=O)N1CC(C(N)=O)Oc2ccccc21 (centres undefined),> 60,> 60,> 60
NC(=O)C1CN(Cc2ccccc2C(F)(F)F)c2ccccc2O1 (centres undefined),0.97,25,> 60
CCOC(=O)C1CNc2ccccc2O1 (centres undefined),> 60,> 60,> 60
NC(=O)C1CN(Cc2ccccn2)c2ccccc2O1 (centres undefined),2.1,> 60,> 60
NC(=O)C1CN(Cc2cn(Cc3ccccc3)nn2)c2ccccc2O1 (centres undefined),8.05,41.9,> 60
N#Cc1cccc(CN2CC(C(N)=O)Oc3ccccc32)c1 (centres undefined),0.43,11.2,> 60
C#CCN1CC(C(N)=O)Oc2ccccc21 (centres undefined),> 60,> 60,> 60
O=C(C1CN(Cc2ccccc2)c2ccccc2O1)N1CCCCC1 (centres undefined),> 60,> 60,> 60
NC(=O)C1CN(Cc2ccccc2Cl)c2ccccc2O1 (centres undefined),0.67,33.6,> 60
NC(=O)C1CN(C(=O)c2ccccc2)c2ccccc2O1 (centres undefined),> 60,> 60,> 60
COC(=O)c1ccc(CN2CC(C(N)=O)Oc3ccccc32)cc1 (centres undefined),3.45,> 60,> 60
NC(=O)C1CN(C(=O)c2cccnc2)c2ccccc2O1 (centres undefined),> 60,> 60,> 60
COc1ccc(C(=O)N2CC(C(N)=O)Oc3ccccc32)cc1 (centres undefined),> 60,> 60,–
